One assay has as its system Cyclin K. As to the kind of experiment: Western blotting analysis of Cyclin K depletion in cell culture. To be noted: A673 cells; for Cyclin K Degrader Activity: Table 2, 1 μM compound, 2 hours. In kind it is cell-based. The protocol:
Western Blotting Analysis of Cyclin K Depletion in Cell Culture A673 cells were incubated for 2 hours with of 1 μM compound in presence or in absence of 10 μM proteasome inhibitor MG132 (Sigma Aldrich) or NAE (NEDD8 activating enzyme) inhibitor […] (Cell Signalling Technologies). Cells were washed 2× with cold Phosphate Buffered Saline (PBS, Sigma Aldrich), followed by the addition of lysis buffer for 15 minutes on ice before harvesting and centrifugation.
Protein content in the cell lysate was assessed by BCA assay (Thermo Fisher). Samples were then prepared with 4× Laemmlli Buffer (Bio-Rad) and heated to 95° C. for 5 minutes. Each sample was loaded onto a Mini-PROTEAN TGX Stain Free Gel (Bio-Rad) at 50 μg protein/well. SDS-PAGE was performed and then protein was transferred onto a PVDF membrane using a Trans-Blot® Turbo™ Midi PVDF Transfer Pack (Bio-Rad. Membranes were blocked in TBS-T (Invitrogen), 5% (w/v) milk powder (Marvel) overnight at 4° C.
Membranes were incubated with anti-CCNK antibody (rabbit) primary antibody (Abcam) and anti-GAPDH antibody (rabbit) in TBS-T for 2 hours. Membranes were then washed three times with TBS-T, before incubation secondary goat anti-rabbit HRP antibody (Cell Signalling Technologies) followed by 3× washing in TBS-T. Blots were imaged using a Chemidoc imager (Bio-Rad). Cyclin K depletion was measured as the observable drop in band intensity in compound treated samples relative to proteasome-inhibitor treated samples, measured by densitometry (Image Lab).
A general note: A western blot detects proteins with antibodies after separation by electrophoresis.

Another assay has as its target Human CDK12 wt/CycK (Homo sapiens (Human), UniProt Q9NYV4). As to the kind of experiment: Radiometric protein kinase assay (33PanQinase Activity Assay), CDK12. In kind it is biochemical. To be noted: for CDK7/CDK12: ratio greater than 1 indicated selectivity for CDK12. The protocol:
(§1) A radiometric protein kinase assay (^33PanQinase® Activity Assay) was used for measuring the kinase activity of the two protein kinases (CDK12/CDK7). All kinase assays were performed in 96-well FlashPlates™ from PerkinElmer (Boston, MA, USA) in a 50 μL reaction volume.
(§2) The reaction cocktail was pipetted in four steps in the following order: • 20 μL of assay buffer (standard buffer) • 5 μL of ATP solution (in H2O) • 5 μL of test compound (in 10% DMSO) • 10 μL of substrate/10 μL of enzyme solution (premixed)
(§3) The reaction mixture was incubated at 30° C. for 60 min and then stopped by the addition of 2% (v/v) H3PO4. Plates were aspirated and washed two times with 200 μL 0.9% (w/v) NaCl. Incorporation of ^33Pi was determined with a microplate scintillation count (Microbeta, Wallac).
(§4) The fitting method used was a least-squares fit.

Another assay addresses Human CDK7/CycH/MAT1 (Homo sapiens (Human), UniProt P50613). As to the kind of experiment: Radiometric protein kinase assay (33PanQinase Activity Assay), CDK7. The class given is biochemical. To be noted: Table 1; ATP 3 μM. The protocol:
as §1, §2, §3, §4

For another assay, the system named is A673 cells. As to the kind of experiment: Cellular potency in A673 cells. In kind it is cell-based. The note with it: for IC50: Homo sapiens, A673 cells.
[1] abbreviates: Table 1, ATP 0.3 μM, read-out: CDK12 IC50.
Setting [2] is: Table 2, CDK12 kinase activity, read-out: Biochemical Potency IC50.
[3] abbreviates: Table 3, CDK12 kinase activity, read-out: Biochemical Potency IC50.
The mark [4] stands for this setting: Table 3, ratio >0.9 is an indicator of Cyclin K degradation.

Where two headings read alike, the source gives them in different places.

Sequence of Human CDK7/CycH/MAT1 (P50613 whole entry): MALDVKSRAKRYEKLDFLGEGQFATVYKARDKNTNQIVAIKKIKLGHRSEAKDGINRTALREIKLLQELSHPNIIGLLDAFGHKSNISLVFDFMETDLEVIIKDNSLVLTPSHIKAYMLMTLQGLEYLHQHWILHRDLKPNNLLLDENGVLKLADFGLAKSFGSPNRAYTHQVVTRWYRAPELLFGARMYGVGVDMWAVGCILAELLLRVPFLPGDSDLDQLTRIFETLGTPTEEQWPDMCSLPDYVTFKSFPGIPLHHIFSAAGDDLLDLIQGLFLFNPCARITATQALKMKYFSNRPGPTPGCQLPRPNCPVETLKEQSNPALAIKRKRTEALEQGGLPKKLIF
Sequence of Human CDK7/CycH/MAT1 (P51946 whole entry partner): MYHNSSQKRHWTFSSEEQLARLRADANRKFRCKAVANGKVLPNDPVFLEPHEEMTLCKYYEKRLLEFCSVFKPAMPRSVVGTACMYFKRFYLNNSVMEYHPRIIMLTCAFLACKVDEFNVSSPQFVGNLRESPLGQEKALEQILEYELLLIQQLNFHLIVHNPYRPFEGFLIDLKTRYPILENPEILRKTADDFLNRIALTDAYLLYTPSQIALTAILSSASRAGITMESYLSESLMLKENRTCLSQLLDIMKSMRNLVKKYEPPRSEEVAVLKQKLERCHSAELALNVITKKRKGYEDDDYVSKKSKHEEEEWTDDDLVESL
Sequence of Human CDK7/CycH/MAT1 (P51948 whole entry partner): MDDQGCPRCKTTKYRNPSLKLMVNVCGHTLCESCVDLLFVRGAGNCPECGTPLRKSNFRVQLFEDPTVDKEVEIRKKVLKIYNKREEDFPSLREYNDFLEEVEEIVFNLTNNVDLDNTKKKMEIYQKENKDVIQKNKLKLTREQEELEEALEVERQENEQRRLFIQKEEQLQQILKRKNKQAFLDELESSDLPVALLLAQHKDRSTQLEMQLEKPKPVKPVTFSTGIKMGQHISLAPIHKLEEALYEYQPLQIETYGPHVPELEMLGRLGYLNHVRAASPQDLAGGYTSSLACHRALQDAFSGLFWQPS
Sequence of Human CDK12 wt/CycK (Q9NYV4 whole entry): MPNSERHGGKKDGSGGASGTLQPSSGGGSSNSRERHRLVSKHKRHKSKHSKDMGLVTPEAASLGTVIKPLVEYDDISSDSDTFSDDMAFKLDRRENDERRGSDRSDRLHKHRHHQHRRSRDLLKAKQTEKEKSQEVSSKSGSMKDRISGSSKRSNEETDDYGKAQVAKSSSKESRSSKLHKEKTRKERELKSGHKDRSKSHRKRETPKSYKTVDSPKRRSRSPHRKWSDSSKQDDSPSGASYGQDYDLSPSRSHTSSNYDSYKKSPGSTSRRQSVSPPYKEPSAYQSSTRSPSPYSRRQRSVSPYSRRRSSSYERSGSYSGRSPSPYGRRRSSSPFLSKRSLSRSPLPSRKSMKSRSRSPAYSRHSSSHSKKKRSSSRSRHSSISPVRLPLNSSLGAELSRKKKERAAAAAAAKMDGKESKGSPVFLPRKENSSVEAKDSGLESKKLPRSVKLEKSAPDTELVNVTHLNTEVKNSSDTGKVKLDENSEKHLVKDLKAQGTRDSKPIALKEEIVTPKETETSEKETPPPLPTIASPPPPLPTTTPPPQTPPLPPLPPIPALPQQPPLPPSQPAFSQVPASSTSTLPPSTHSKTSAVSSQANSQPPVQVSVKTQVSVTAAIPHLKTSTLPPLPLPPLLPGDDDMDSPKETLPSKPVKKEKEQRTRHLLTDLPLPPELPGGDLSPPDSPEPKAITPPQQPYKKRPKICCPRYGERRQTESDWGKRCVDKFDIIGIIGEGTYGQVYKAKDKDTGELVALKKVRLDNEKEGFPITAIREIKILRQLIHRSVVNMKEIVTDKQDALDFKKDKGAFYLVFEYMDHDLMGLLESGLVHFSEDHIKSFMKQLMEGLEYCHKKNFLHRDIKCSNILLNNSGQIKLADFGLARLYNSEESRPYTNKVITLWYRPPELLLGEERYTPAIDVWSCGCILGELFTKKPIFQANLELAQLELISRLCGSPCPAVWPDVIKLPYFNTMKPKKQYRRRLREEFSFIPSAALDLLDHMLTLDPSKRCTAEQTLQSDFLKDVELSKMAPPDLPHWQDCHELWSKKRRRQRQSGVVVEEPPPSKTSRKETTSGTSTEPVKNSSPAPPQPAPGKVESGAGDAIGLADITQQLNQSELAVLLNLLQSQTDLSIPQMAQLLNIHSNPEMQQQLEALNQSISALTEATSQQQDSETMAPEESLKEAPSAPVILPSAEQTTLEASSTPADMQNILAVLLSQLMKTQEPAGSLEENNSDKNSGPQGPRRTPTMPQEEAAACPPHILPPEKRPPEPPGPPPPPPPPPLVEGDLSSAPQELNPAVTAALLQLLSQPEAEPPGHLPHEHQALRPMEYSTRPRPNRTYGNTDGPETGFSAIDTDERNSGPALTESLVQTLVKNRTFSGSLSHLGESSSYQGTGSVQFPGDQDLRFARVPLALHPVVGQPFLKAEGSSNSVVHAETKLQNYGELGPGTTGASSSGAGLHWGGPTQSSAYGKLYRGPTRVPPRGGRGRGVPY
Sequence of Human CDK12 wt/CycK (O75909 whole entry partner): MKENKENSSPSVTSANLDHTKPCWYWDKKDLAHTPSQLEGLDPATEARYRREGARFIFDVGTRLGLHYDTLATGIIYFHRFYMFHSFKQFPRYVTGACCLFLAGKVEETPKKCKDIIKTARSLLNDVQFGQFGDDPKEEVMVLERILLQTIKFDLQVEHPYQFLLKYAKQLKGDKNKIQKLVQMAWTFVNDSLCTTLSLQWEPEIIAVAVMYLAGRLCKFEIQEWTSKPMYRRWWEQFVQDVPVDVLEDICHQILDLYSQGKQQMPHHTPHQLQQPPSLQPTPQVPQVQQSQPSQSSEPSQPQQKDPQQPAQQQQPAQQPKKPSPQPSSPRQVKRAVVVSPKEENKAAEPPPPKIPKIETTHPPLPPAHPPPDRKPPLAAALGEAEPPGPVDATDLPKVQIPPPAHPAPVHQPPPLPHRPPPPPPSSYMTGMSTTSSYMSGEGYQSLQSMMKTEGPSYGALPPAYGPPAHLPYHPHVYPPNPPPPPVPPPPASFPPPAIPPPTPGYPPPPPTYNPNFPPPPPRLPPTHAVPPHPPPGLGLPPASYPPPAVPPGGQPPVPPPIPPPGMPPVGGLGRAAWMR

`CCc1cnn2c(NCc3ccc[n+]([O-])c3)cc(N3CCCC[C@H]3CCO)nc12` [Dinaciclib, reference compound]: in the assay with Cyclin K, the “Cyclin K degradation (in words)” value is on record as “not cyclin K degraders” and the “Cyclin K Degrader Activity” value is recorded as “−”.

By IC50 is commonly meant the concentration that gives 50% inhibition. Turning to `Cc1cccn2cc(CNc3cc(NC[C@H]4CCNC[C@@H]4O)nc4c(C(C)C)cnn34)nc12` [H-APPAMP-004, (3R,4R)-4-(((3-isopropyl-7-(((8-methylimidazo[1,2-a]pyridin-2-yl)methyl)amino)pyrazolo[1,5-a]pyrimidin-5-yl)amino)methyl)piperidin-3-ol], the IC50 at Human CDK12 wt/CycK (setting [1]) is 51.7 nM; on Human CDK12 wt/CycK (setting [2]), 55 nM; at Human CDK12 wt/CycK (setting [3]), 51 nM; against Human CDK7/CycH/MAT1 it was 305 nM; in the assay with A673 cells (A673, Table 2), 8.9 nM; in the assay with A673 cells (A673, Table 3), 12 nM. The CDK7/CDK12 at Human CDK12 wt/CycK (Table 1) came to 5.90. Also, the “Ratio of Biochemical Potency: Cellular Potency” value (from here on “Ratio of Biochemical Potency”) is 6.2 in the assay on A673 cells (Table 2) and 4.2 in the assay with A673 cells (setting [4]). Also, the “Cyclin K Degrader Activity” value in the assay on Cyclin K was “++”.

In the case of `Cc1cccc2nc(CNc3cc(NC[C@H]4CCNC[C@@H]4O)nc4c(C5CC5)cnn34)cn12` [H-APPAMP-025, (3R,4R)-4-(((3-cyclopropyl-7-(((5-methylimidazo[1,2-a]pyridin-2-yl)methyl)amino)pyrazolo[1,5-a]pyrimidin-5-yl)amino)methyl)piperidin-3-ol], the IC50 on Human CDK12 wt/CycK (setting [1]) was found to be 36 nM; on Human CDK12 wt/CycK (setting [2]), 36 nM; at Human CDK12 wt/CycK (setting [3]), 36 nM; at Human CDK7/CycH/MAT1 it was 334 nM; in the assay on A673 cells (A673, Table 2) it was 1.5 nM; in the assay on A673 cells (A673, Table 3) it was 1.5 nM. For the same molecule, at Human CDK12 wt/CycK (Table 1), the CDK7/CDK12 is listed as 9.3. The “Ratio of Biochemical Potency” value in the assay with A673 cells (Table 2) and with A673 cells (setting [4]) was 23 each time. In addition, in the assay on Cyclin K, the “Cyclin K Degrader Activity” value was “+++”.

Consider `O[C@H]1CNCC[C@@H]1CNc1cc(NCc2cn3ccc(C(F)(F)F)cc3n2)n2ncc(C3CC3)c2n1` [H-APPAMP-035, (3R,4R)-4-(((3-cyclopropyl-7-(((7-(trifluoromethyl)imidazo[1,2-a]pyridin-2-yl)methyl)amino)pyrazolo[1,5-a]pyrimidin-5-yl)amino)methyl)piperidin-3-ol], for which the IC50 on Human CDK12 wt/CycK (setting [1]) stood at 44 nM; at Human CDK12 wt/CycK (setting [3]) it was 44 nM; on Human CDK7/CycH/MAT1, 1290 nM; in the assay on A673 cells (A673, Table 3), 17.3 nM. In addition, the CDK7/CDK12 on Human CDK12 wt/CycK (Table 1) is 29.3. Further, the “Ratio of Biochemical Potency” value in the assay on A673 cells (setting [4]) is listed as 2.5.

For `Cn1c(CNc2cc(NC[C@H]3CCNC[C@@H]3O)nc3c(C4CC4)cnn23)nc2cc(F)c(F)cc21` [H-APPAMP-036, (3R,4R)-4-(((3-cyclopropyl-7-(((5,6-difluoro-1-methyl-1H-benzo[d]imidazol-2-yl)methyl)amino)pyrazolo[1,5-a]pyrimidin-5-yl)amino)methyl)piperidin-3-ol], the IC50 at Human CDK12 wt/CycK (setting [1]) came out at 287 nM; on Human CDK12 wt/CycK (setting [3]) it was 287 nM; against Human CDK7/CycH/MAT1, 1150 nM; with A673 cells (A673, Table 3), 10.4 nM. In addition, the CDK7/CDK12 on Human CDK12 wt/CycK (Table 1) turned out to be 4.0. Further, the “Ratio of Biochemical Potency” value in the assay on A673 cells (setting [4]) stood at 28.

In the case of `O[C@H]1CNCC[C@@H]1CNc1cc(NCc2cn3c(C(F)(F)F)cccc3n2)n2ncc(C3CC3)c2n1` [H-APPAMP-037, (3R,4R)-4-(((3-cyclopropyl-7-(((5-(trifluoromethyl)imidazo[1,2-a]pyridin-2-yl)methyl)amino)pyrazolo[1,5-a]pyrimidin-5-yl)amino)methyl)piperidin-3-ol], the IC50 on Human CDK12 wt/CycK (setting [1]) stood at 208 nM; on Human CDK12 wt/CycK (setting [3]), 208 nM; against Human CDK7/CycH/MAT1, 649 nM; in the assay on A673 cells (A673, Table 3), 18.1 nM. For the same molecule, the CDK7/CDK12 on Human CDK12 wt/CycK (Table 1) was 3.1. In addition, the “Ratio of Biochemical Potency” value in the assay on A673 cells (setting [4]) was found to be 11.

As to `CCc1cnn2c(NCc3cn4cc(C5CC5)cc(C(F)(F)F)c4n3)cc(NC[C@H]3CCNC[C@@H]3O)nc12` [H-APPAMP-038, (3R,4R)-4-(((7-(((6-cyclopropyl-8-(trifluoromethyl)imidazo[1,2-a]pyridin-2-yl)methyl)amino)-3-ethylpyrazolo[1,5-a]pyrimidin-5-yl)amino)methyl)piperidin-3-ol], the IC50 on Human CDK12 wt/CycK (setting [1]) turned out to be 100 nM; on Human CDK12 wt/CycK (setting [3]), 100 nM; at Human CDK7/CycH/MAT1, 762 nM; with A673 cells (A673, Table 3) it was 4.6 nM. For the same molecule, the CDK7/CDK12 on Human CDK12 wt/CycK (Table 1) is on record as 7.6. Further, in the assay on A673 cells (setting [4]), the “Ratio of Biochemical Potency” value was determined as 22.

For the molecule `Cc1cc(C(F)(F)F)cc2nc(CNc3cc(NC[C@H]4CCNC[C@@H]4O)nc4c(C5CC5)cnn34)cn12` [H-APPAMP-039, (3R,4R)-4-(((3-cyclopropyl-7-(((5-methyl-7-(trifluoromethyl)imidazo[1,2-a]pyridin-2-yl)methyl)amino)pyrazolo[1,5-a]pyrimidin-5-yl)amino)methyl)piperidin-3-ol], the IC50 on Human CDK12 wt/CycK (setting [1]) worked out at 48 nM; at Human CDK12 wt/CycK (setting [3]) it was 48 nM; at Human CDK7/CycH/MAT1, 1830 nM; in the assay on A673 cells (A673, Table 3) it was 4 nM. For the same molecule, the CDK7/CDK12 at Human CDK12 wt/CycK (Table 1) came out at 38.1. Besides, the “Ratio of Biochemical Potency” value in the assay with A673 cells (setting [4]) stood at 12.

Consider `Cc1cn2cc(CNc3cc(NC[C@H]4CCNC[C@@H]4O)nc4c(C5CC5)cnn34)nc2cc1C(F)(F)F` [H-APPAMP-040, (3R,4R)-4-(((3-cyclopropyl-7-(((6-methyl-7-(trifluoromethyl)imidazo[1,2-a]pyridin-2-yl)methyl)amino)pyrazolo[1,5-a]pyrimidin-5-yl)amino)methyl)piperidin-3-ol], for which the IC50 is 48 nM at Human CDK12 wt/CycK (setting [1]); 48 nM on Human CDK12 wt/CycK (setting [3]); 1530 nM against Human CDK7/CycH/MAT1; 5.4 nM in the assay on A673 cells (A673, Table 3). Moreover, the CDK7/CDK12 at Human CDK12 wt/CycK (Table 1) worked out at 31.9. Also, the “Ratio of Biochemical Potency” value in the assay on A673 cells (setting [4]) was 8.9.

Consider `CC(C)Oc1cccc2nc(CNc3cc(NC[C@H]4CCNC[C@@H]4O)nc4c(C5CC5)cnn34)cn12` [H-APPAMP-041, (3R,4R)-4-(((3-cyclopropyl-7-(((5-isopropoxyimidazo[1,2-a]pyridin-2-yl)methyl)amino)pyrazolo[1,5-a]pyrimidin-5-yl)amino)methyl)piperidin-3-ol], for which the IC50 on Human CDK12 wt/CycK (setting [1]) was determined as 46 nM; at Human CDK12 wt/CycK (setting [3]), 46 nM; against Human CDK7/CycH/MAT1 it was 650 nM; with A673 cells (A673, Table 3), 9.8 nM. The CDK7/CDK12 on Human CDK12 wt/CycK (Table 1) is reported as 14.1. In addition, the “Ratio of Biochemical Potency” value with A673 cells (setting [4]) is recorded as 4.7.

With `O[C@H]1CNCC[C@@H]1CNc1cc(NCc2cn3cc(C4CC4)cc(C(F)(F)F)c3n2)n2ncc(C3CC3)c2n1` [H-APPAMP-042, (3R,4R)-4-(((3-cyclopropyl-7-(((6-cyclopropyl-8-(trifluoromethyl)imidazo[1,2-a]pyridin-2-yl)methyl)amino)pyrazolo[1,5-a]pyrimidin-5-yl)amino)methyl)piperidin-3-ol], the IC50 on Human CDK12 wt/CycK (setting [1]) was determined as 100 nM; at Human CDK12 wt/CycK (setting [3]), 100 nM; against Human CDK7/CycH/MAT1 it was 974 nM; with A673 cells (A673, Table 3), 30 nM. Also, the CDK7/CDK12 at Human CDK12 wt/CycK (Table 1) was 9.7. The “Ratio of Biochemical Potency” value in the assay with A673 cells (setting [4]) is on record as 3.3.

`Cc1cc(C)n2cc(CNc3cc(NC[C@H]4CCNC[C@@H]4O)nc4c(C(C)C)cnn34)nc2n1` [H-APPAMP-043, (3R,4R)-4-(((7-(((5,7-dimethylimidazo[1,2-a]pyrimidin-2-yl)methyl)amino)-3-isopropylpyrazolo[1.5-a]pyrimidin-5-yl)amino)methyl)piperidin-3-ol]: the IC50 at Human CDK12 wt/CycK (setting [1]) was found to be 21 nM; on Human CDK12 wt/CycK (setting [2]), 21 nM; on Human CDK12 wt/CycK (setting [3]), 21 nM; on Human CDK7/CycH/MAT1 it was 484 nM; in the assay on A673 cells (A673, Table 2), 340 nM; in the assay on A673 cells (A673, Table 3), 340 nM. The CDK7/CDK12 at Human CDK12 wt/CycK (Table 1) was determined as 23. Moreover, the “Ratio of Biochemical Potency” value with A673 cells (Table 2) and with A673 cells (setting [4]) was 0.06 each time. In addition, the “Cyclin K Degrader Activity” value with Cyclin K is “−”.

Source of the values: US12473303B2, “4-[[(7-aminopyrazolo[1,5-a]pyrimidin-5-yl)amino methyl]piperidin-3-ol compounds and their therapeutic use” (CARRICK THERAPEUTICS LIMITED, priority 2019, dated 2025).
